Test system: aged MuSCs
Assay: Aged MuSC proliferation in culture
Assay type: cell-based, mouse
Method: Muscle stem cell culture, treatment and lentiviral infection: Following isolation, we resuspended MuSCs in myogenic cell culture medium containing DMEM/F10 (50:50), 15% FBS, 2.5 ng ml^−1 fibroblast growth factor-2 (FGF-2 also known as bFGF) and 1% penicillin-streptomycin. We seeded MuSC suspensions at a density of 500 cells per cm^2 surface area. We maintained cell cultures at 37° C. in 5% CO2 and changed medium daily. For PGE2, 15-PGDH inhibitor and EP4 receptor antagonist treatment studies, we added 1-200 ng/ml Prostaglandin E2 (Cayman Chemical) (unless specified in the figure legends, 10 ng/ml was the standard concentration used), and/or 1 μM EP4 antagonist (ONO-AE3-208, Cayman Chemical), or 1 μM 15-PGDH inhibitor (SW033291, Cayman Chemical) to the MuSCs cultured on collagen coated dishes for the first 24 h. The cells were then trypsinized and cells reseeded onto hydrogels for an additional 6 days of culture. All treatments were compared to their solvent (DMSO) vehicle control. For stripped serum assays, we resuspended isolated MuSCs in medium containing DMEM/F10 (50:50), 15% charcoal stripped FBS (Gibco, cat #12676011), 2.5 ng ml^−1 bFGF and 1% penicillin-streptomycin. […]
Proliferation assays: To assay proliferation, we used three different assays (hemocytometer, VisionBlue, and EdU). […] For hemocytometer cell number count, we collected cells at indicated timepoints by incubation with 0.5% trypsin in PBS for 5 min at 37° C. and quantified them using a hemocytometer at least 3 times. Additionally, we used the VisionBlue Quick Cell Viability Fluorometric Assay Kit (BioVision, catalog #K303) as a readout for cell growth in culture. Briefly, we incubated MuSCs with 10% VisionBlue in culture medium for 3 h, and measured fluorescence intensity on a fluorescence plate reader (Infinite M1000 PRO, Tecan) at Ex=530-570 nm, Em=590-620 nm. […] We quantified EdU positive cells using the MetaMorph Image Analysis software (Molecular Devices). Data analyses were blinded, where researchers performing cell scoring were unaware of the treatment condition given to sample groups analyzed.

## CCCCC[C@H](O)/C=C/[C@H]1[C@H](O)CC(=O)[C@@H]1C/C=C\CCCC(=O)O [PGE2, prostaglandin E2]
PGE2 10 ng/ml every two days for 7 days
  aged MuSC proliferation in charcoal stripped serum medium: rescued by addition of PGE2 alone
PGE2 10 ng/ml or SW033291 1 μM, 24 hr, assayed at day 7
  aged MuSC proliferation and Pax7 expression after 1-day pulse: characteristic increase in proliferation and maintenance of Pax7 expression
